Converted amounts (≈) assume the structure as drawn. Counter-ions that a name gives are not always drawn.
Experiments:
[1] = cited from earlier work; for bioavailability: oral administration
physchem = conditions: thermodynamic from solid
[2] = cited from earlier work
[3] = Water solubility of active agent with and without glycyrrhizin ammonium (24 h rotation, filtration, HPLC); conditions: versus control with zero glycyrrhizin, 0.1 M glycyrrhizin ammonium, distilled water, room temperature
[4] = cited from earlier work; remark: listed apart in the source

**Q.** For `CC(C)(C)c1ccc(C(O)CCCN2CCC(C(O)(c3ccccc3)c3ccccc3)CC2)cc1` (stereo not drawn) [terfenadine], which “fraction of a tablet given by mouth changed to metabolites” value ([1]; oral tablet, first-pass effect) is on record?
**A.** 99.5%

**Q.** With `O=C1CC2(CCCC2)CC(=O)N1CCCCN1CCN(c2ncccn2)CC1` [buspirone, 8-[4-[4-(2-pyrimidinyl)1-piperazinyl]butyl]-8-azaspiro(4,5)-decane-7,9-dione] as the compound, how does the solubility at 24 h (physchem; aqueous with cosolvent or surfactant or cyclodextrin) read?
**A.** 44000 µg/mL (≈ 114000 µM)

**Q.** What about the solubility at 24 h (physchem; water) of the same compound?
**A.** 380 µg/mL (≈ 986 µM)

**Q.** And the biological half-life ([2]; in man)?
**A.** 2–11 hours

**Q.** What about the “interindividual variation of the maximum plasma concentration” value ([2]; oral) of the same compound?
**A.** up to 10 fold

**Q.** Which “increase of solubility through complexation with glycyrrhizin” value [3] does the source give for “5-[-2-ethoxy-5-(4-methylpiperazin-1ylsulphonyl)phenyl]-1-methyl -3-n-propyl-1,6-dihydro-7H-pyrazolo[4,3-d]pyrimidine [sildenafil]” here?
**A.** 200 fold

**Q.** And the “increase of solubility through complexation with glycyrrhizin” value ([3]; listed as sildenfil)?
**A.** more than 200 fold

**Q.** Which “time to peak plasma concentration” value ([1]; after oral administration) does the source give for `NC(N)=Nc1nc(CSCCC(N)=NS(N)(=O)=O)cs1` [famotidine, N′(aminosulfonyl)-3-[[[2-[(diaminomethylene)amino]-4-thiazolyl]methyl]thio] propanimidamide] here?
**A.** 1 to 3.5 h

**Q.** And the bioavailability [1]?
**A.** approximately 43%

**Q.** What about the “effect of food on bioavailability” value ([1]; tablet formulation) of the same compound?
**A.** unaffected by food

**Q.** And the solubility at 24 h (physchem; water)?
**A.** < 1000 µg/mL

**Q.** What about the intrinsic water solubility [4] of the same compound?
**A.** 0.278 mg/mL

**Q.** What about the pKa [4] of the same compound?
**A.** 6.8

**Q.** What about the solubility in ethanol ([4]; ethanol) of the same compound?
**A.** insoluble

**Q.** And the “solubility in glacial acetic acid” value ([4]; glacial acetic acid)?
**A.** freely soluble

**Q.** And the solubility in water ([4]; water)?
**A.** very slightly soluble

**Q.** What does the source list for `CCCc1nn(C)c2c(=O)[nH]c(-c3cc(S(=O)(=O)N4CCN(C)CC4)ccc3OCC)nc12` [Sildenafil citrate]?
**A.** bioavailability [1]: about 40%; solubility ([4]; formulated as a regular film tablet): 6 to 8 mg/mL
